According to PMC5141252, “In silico Screening and Evaluation of the Anticonvulsant Activity of Docosahexaenoic Acid-Like Molecules in Experimental Models of Seizures” (Iranian Biomedical Journal, 2017):
Marks after values point to notes of the source that are not given here.

How the values were obtained:
[1] = tested on: clonic seizures induced by pentylenetetrazole; experiment: Pentylenetetrazole seizure test; assay type: in vivo; conditions: mice; for Protection (%): 15 min before PTZ 60 mg/kg i.p.; for ED50 (mM) and 95% CI: PTZ clonic seizures, log-Probit analysis
Experimental: (§1) All compounds were prepared freshly before administration. The compounds were dissolved in DMSO and then were diluted in artificial cerebrospinal fluid consisting (in mM) 124.0 NaCl, 25 NaHCO3, 10 D-glucose,4.4 KCl, 2 MgSO4, 1.25 KH2PO4, and 2 CaCl2. The final concentration of DMSO was maintained at 10%. The pH of the solutions was adjusted at the range of 7.2-7.4. Doses of the compounds were selected based on the preliminary experiments conducted in our laboratory.
(§2) DHA-like molecules were administered by intracerebroventricular (i.c.v.) route according to the method described earlier. Briefly, a 3.5-mm-long needle (27 Gauge) was connected to a 10-μL Hamilton microsyringe. The site of injection was 2 mm lateral to the midline on a line drawn through the anterior base of the ears and 3.5 mm in depth from the surface of skull skin. The solution was injected at a rate of 10 µL/10 s and the needle left in place for 60 s after injection.
Fifteen minutes after i.c.v. injection of the compounds, PTZ (60 mg/kg) was injected to the mice intraperitoneally (i.p.). This time period was selected based on the time course of DHA anticonvulsant activity in mice[6]. The occurrence of colonic seizures was monitored in animals for 30 min.
(§3) Statistical analysis was performed by SPSS for Windows software version 16.0. Data obtained from the seizure tests were expressed as percentage of the protected mice. Fisher’s exact test was used to analyze the data. The dose of the drugs that produced anticonvulsant effect in 50% of the animals (ED50), and its associated 95% confidence interval, was calculated by log-Probit analysis.

[2] = tested on: tonic seizures induced by MES; experiment: Maximal electroshock seizure test; assay type: in vivo; conditions: mice; for Protection (%): 15 min before MES (50 Hz, 50 mA); for ED50 (mM) and 95% CI: i.c.v., MES tonic seizures, log-Probit analysis
Experimental: as §1, §2
Fifteen minutes after i.c.v. injection of the compounds, an electrical stimulus (50 Hz, 50 mA, 1 s duration) was delivered to the mice through ear-clip electrodes[6] using a stimulator apparatus (MGH-777, Development of Electronic Industry, Iran).
as §3

[3] = tested on: tonic seizures induced by MES; set-up: method as in PMID 26018398; conditions: cited from earlier work
[4] = tested on: clonic seizures induced by pentylenetetrazole; set-up: method as in PMID 26018398; conditions: PTZ test, mice, i.c.v administration; cited from earlier work

Compound: CCC(C(=O)O)c1ccccc1 (stereo not shown) [2-Phenylbutyric acid]
- Protection (%) ([1]; dose 0.0001 M i.c.v.): 0%
- Protection (%) ([1]; dose 0.001 M i.c.v.): 30%
- Protection (%) ([1]; dose 0.01 M i.c.v.): 40^b %
- Protection (%) ([1]; dose 0.1 M i.c.v.): 56.6^a %
- ED50 (mM) and 95% CI ([1]; i.c.v.): 70.0 (25.0-144.2) mM

Compound: COc1ccc(CC(=O)O)cc1OC [3,4-Dimethoxyphenylacetic acid, 3,4-Dimethoxyphenylacetic acid]
- anticonvulsant activity (in words) ([1]; PTZ and MES seizure tests, i.c.v.): inactive

Compound: O=C(O)Cc1ccc(-c2ccccc2)cc1 [4-Biphenylacetic acid]
- Protection (%) ([1]; dose 0.0001 M i.c.v.): 15%
- Protection (%) ([1]; dose 0.001 M i.c.v.): 35%
- Protection (%) ([1]; dose 0.0075 M i.c.v.): 50%
- Protection (%) ([1]; dose 0.01 M i.c.v.): 85^a %
- ED50 (mM) and 95% CI ([1]; i.c.v.): 5.0 (3.0-5.0) mM

Compound: O=C(O)CCCc1ccccc1 [4-Phenylbutyric acid]
- Protection (%) ([1]; dose 0.0001 M i.c.v.): 25%
- Protection (%) ([1]; dose 0.001 M i.c.v.): 50^b %
- Protection (%) ([1]; dose 0.01 M i.c.v.): 73.3^a %
- ED50 (mM) and 95% CI ([1]; i.c.v.): 4.0 (0.0-7.0) mM

Compound: CC(C)(C)C1CCC(C(=O)O)CC1 (stereo not shown) [4-tert-Butylcyclohexanecarboxylic acid]
- Protection (%) ([2]; dose 0.001 M i.c.v.): 37.5%
- Protection (%) ([2]; dose 0.01 M i.c.v.): 46.6^b %
- Protection (%) ([2]; dose 0.1 M i.c.v.): 73.3^a %
- ED50 (mM) and 95% CI ([2]; listed as 4-tert-Butylcyclo-hexanecarboxylic acid): 637 mM
- ED50 (mM) and 95% CI ([2]; listed as 4-tert-Butylcyclohexane carboxylic acid): 29.0 (0.0-66.0) mM

Compound: CC/C=C\C/C=C\C/C=C\C/C=C\C/C=C\C/C=C\CCC(=O)O [DHA, Docosahexaenoic acid]
- inhibition of tonic seizures in the MES model [3]: not able to inhibit tonic seizures
- ED50 [4]: 0.00013 mM

Compound: O=C(O)Cc1ccccc1 [Phenylacetic acid]
- Protection (%) ([1]; dose 0.0001 M i.c.v.): 0%
- Protection (%) ([1]; dose 0.001 M i.c.v.): 20%
- Protection (%) ([1]; dose 0.01 M i.c.v.): 30%
- Protection (%) ([1]; dose 0.1 M i.c.v.): 57.5^a %
- ED50 (mM) and 95% CI ([1]; i.c.v.): 78 mM
- ED50 (mM) and 95% CI ([1]; i.c.v., listed as Phenylbutyric acid): 78.0 (46.0-156.0) mM

Compound: O=C(O)C1=C[C@@H](O)[C@@H](O)[C@H](O)C1 [Shikimic acid]
- Protection (%) ([2]; dose 0.01 M i.c.v.): 0%
- Protection (%) ([2]; dose 0.1 M i.c.v.): 20.0%
- Protection (%) ([2]; dose 0.5 M i.c.v.): 43.3^b %
- Protection (%) ([2]; dose 1 M i.c.v.): 70.0^a %
- ED50 (mM) and 95% CI [2]: 637.0 (418.0-890.0) mM
- ED50 (mM) and 95% CI ([2]; listed as shikimic acid): 29 mM
